Results reported in patent US20230293565A1, “USE OF WNT/BETA-CATENIN PATHWAY INHIBITORS TO BLOCK REPLICATION OF SARS-COV-2 AND OTHER PATHOGENIC VIRUSES” (THE GOVERNORS OF THE UNIVERSITY OF ALBERTA, priority 2020, published 2023).
“Also recorded” adds a separate entry of the source. Read-outs that look alike come from different tables or passages of the source.

Columns and labels:
[1] = system: SARS-CoV-2 (CANADA/VIDO01/2020 strain); assay type: cell-based
[2] = system: Vero cells; assay type: cell-based, African green monkey; details: 1 μM (Pyrvinium 100 nM), 48 hours
[3] = system: HCOV-NL63; experiment: HCOV-NL63 plaque assay in Calu3 cells; assay type: cell-based; details: Calu3 treated 24 h, MOI 0.5, 24 h
Experimental: (§1) FIG. 16. Effect of Wnt/β-catenin inhibitors on other human coronaviruses (HCOVs). Calu3 cells were treated with the indicated concentrations of Wnt/β-catenin inhibitors for 24 hours and then infected with HCOVs NL63 or 229E MOI of 0.5). Twenty-four hours later, media were collected and subjected to plaque assay to determine viral titers. Average titers from there independent experiments are shown.
(§2) Because Wnt/β-catenin inhibitors enhance the IFN response, we hypothesized that these drugs would be effective against other human coronaviruses and potentially other pathogenic RNA viruses such as flaviviruses and alphaviruses. To test this theory, Calu-3 and A549 cells treated with Wnt/β-catenin inhibitors or DMSO for 24 hours were infected with two different seasonal human coronavirus HCOV-NL63 and HCOV-229E for 24 hours or Zika virus or Mayaro virus for 48 and 24 hours respectively.

[4] = system: HCOV-229E; experiment: HCOV-229E plaque assay in Calu3 cells; assay type: cell-based
Experimental: as §1, §2

[5] = system: Zika virus (ZIKV); experiment: Zika virus plaque assay and qRT-PCR in A549 cells; assay type: cell-based; details: A549, 1 μM, 24 h pre-treatment, 0.1 MOI
Experimental: FIG. 17. Wnt/β-catenin inhibitors reduce replication of other RNA viruses. A549 cells were treated with Wnt/β-catenin inhibitors (1 μM) or DMSO alone for 24 hours, after which the cells were infected with 0.1 MOI of Zika virus (ZIKV) or Mayaro virus (MAYV). Forty-eight hours later, virus-containing media were subjected to plaque assays and total RNA extracted from cells was subjected to qRT-PCR to determine relative levels of viral RNA. Average viral titers (A,C) and genomic RNA levels (B, D) from drug-treated cells from 3 independent experiments are shown. Error bars represent standard error of the mean. *, P<0.05; **, P<0.01; N.S. (not significant).
as §2

[6] = system: Mayaro virus (MAYV); assay type: cell-based; details: A549, 1 μM, 24 h pre-treatment, 0.1 MOI
[7] = system: type III (IFNλ2) interferon; assay type: cell-based, human; details: A549 treated 24 h, Sendai virus 8 and 16 hours

Compound	SARS-CoV-2 replication, drug added 6-hours post-infection (in words) [1]	SARS-CoV-2 replication, drug added 12-hours post-infection (in words) [1]	density of peroxisomes in Vero cells [2]	titers of HCOV-NL63 [3]	titers of HCOV-229E ([4]; Calu3 treated 24 h, MOI 0.5, 24 h)	replication of Zika virus [5]	replication of Mayaro virus [6]	induction of type III IFN (IFNλ2 transcripts) [7]	titers of HCOV-229E [4]
O=C([O-])CCN1C(=O)/C(=C/c2ccc(-c3ccc([N+](=O)[O-])cc3)o2)SC1=S.[K+] [KYA1797K]	effectively block; also recorded: reduce SARS-CoV-2 replication	reduce SARS-CoV-2 replication	increases peroxisome density	significantly reduced	significantly reduced	most potent	most potent		
Cc1cc(-c2ncc(CC(=O)Nc3ccc(-c4cnccn4)cn3)cc2C)ccn1 [LGK-974]	effectively block								
Cc1cc(/C=C/c2ccc3cc(N(C)C)ccc3[n+]2C)c(C)n1-c1ccccc1 [Pyrvinium]	effectively block; also recorded: reduce SARS-CoV-2 replication	reduce SARS-CoV-2 replication		significantly reduced				much more dramatic effects	significantly reduced
iCRT-14								much more dramatic effects	
